Test results: patent US10322995B2, “Substituted cyano cycloalkyl penta-2,4-dienes, cyano cycloalkyl pent-2-en-4-ynes, cyano heterocyclyl penta-2,4-dienes and cyano heterocyclyl pent-2-en-4-ynes as active substances against abiotic plant stress” (BAYER CROPSCIENCE AKTIENGESELLSCHAFT, priority 2014, dated 2019)

Key:
Brassica napus (BRSNS) = test: In vivo analyses Part A: drought stress, visual damage scoring, efficacy EF (BRSNS); conditions: spray application 250 g/ha, efficacy = reduction in damage intensity
Procedure: Seeds of monocotyledonous and dicotyledonous crop plants were sown in sandy loam in wood-fibre pots, covered with soil or sand and cultivated in a greenhouse under good growth conditions. The test plants were treated at the early leaf stage (BBCH10-BBCH13). To assure uniform water supply before commencement of stress, the potted plants were supplied with water by dam irrigation prior to substance application. The inventive compounds, formulated in the form of wettable powders (WP), were sprayed onto the green parts of the plants as an aqueous suspension at an equivalent water application rate of 600 I/ha with addition of 0.2% wetting agent (e.g. agrotin). Substance application was followed immediately by stress treatment of the plants. For this purpose, the pots were transferred in plastic inserts in order to prevent them from subsequently drying out too quickly. Drought stress was induced by gradual drying out under the following conditions: “Day”: 14 hours with illumination at 26° C. “Night”: 10 hours without illumination at 18° C. The duration of the respective stress phases was guided mainly by the condition of the stressed control plants. It was ended (by re-irrigating and transfer to a greenhouse with good growth conditions) as soon as irreversible damage was observed on the stressed control plants. The end of the stress phase was followed by an about 4-7-day recovery phase, during which the plants were once again kept under good growth conditions in a greenhouse. The duration of the recovery phase was guided mainly by when the trial plants had attained a state which enabled visual scoring of potential effects, and was therefore variable. Once this juncture was reached, the intensities of damage were scored visually in comparison to untreated, unstressed controls of the same age. The damage intensity was at first assessed in percent. […]

Zea mays (ZEAMX) = test: In vivo analyses Part A: drought stress, visual damage scoring, efficacy EF (ZEAMX); conditions: spray application 250 g/ha, efficacy = reduction in damage intensity
Procedure: Seeds of monocotyledonous and dicotyledonous crop plants were sown in sandy loam in wood-fibre pots, covered with soil or sand and cultivated in a greenhouse under good growth conditions. The test plants were treated at the early leaf stage (BBCH10-BBCH13). To assure uniform water supply before commencement of stress, the potted plants were supplied with water by dam irrigation prior to substance application. The inventive compounds, formulated in the form of wettable powders (WP), were sprayed onto the green parts of the plants as an aqueous suspension at an equivalent water application rate of 600 I/ha with addition of 0.2% wetting agent (e.g. agrotin). Substance application was followed immediately by stress treatment of the plants. For this purpose, the pots were transferred in plastic inserts in order to prevent them from subsequently drying out too quickly. Drought stress was induced by gradual drying out under the following conditions: “Day”: 14 hours with illumination at 26° C. “Night”: 10 hours without illumination at 18° C. The duration of the respective stress phases was guided mainly by the condition of the stressed control plants. […] Once this juncture was reached, the intensities of damage were scored visually in comparison to untreated, unstressed controls of the same age. The damage intensity was at first assessed in percent. […]

SMILES	EF [%] (BRSNS) (Brassica napus (BRSNS))	EF [%] (ZEAMX) (Zea mays (ZEAMX))
CCOC(=O)/C=C(\C#CC(O)(C(C)C)C1(C#N)CC1)C1CC1 (stereo not drawn) [I.1-124, Ethyl (2Z)-6-(1-cyanocyclopropyl)-3-cyclopropyl-6-hydroxy-7-methyloct-2-en-4-ynoate]	>5	–
CCOC(=O)/C=C(/C)C#CC(O)(C(C)C)C1(C#N)CC1 (stereo not drawn) [I.1-136]	>5	>5
